“Also recorded” adds a separate entry of the source.
Assays:
HL-7702 cells = assay: Glycogenolysis inhibition assay in HL-7702 cells; format: cell-based, human; conditions: for IC50: Homo sapiens, L02, 1 h, HL-7702 cells, 0.3 nM glucagon, 60 min, mean ± SD of three determinations
Procedure: To evaluate the effects of the synthesized compounds on glycogen degradation, compounds 8a–8i were subjected to a glycogenolysis assay in HL-7702 cells.
The inhibitory effect on hepatic glycogenolysis was quantitatively assessed by colorimetry using a microplate reader (Bio-Rad Laboratories) and anthrone reagent (Sigma-Aldrich, St. Louis, MO, USA), as previously described. Primary human liver HL-7702 cells (National Collection of Authenticated Cell Cultures) were treated with test compounds or DMSO solvent (final concentration, 0.10%) and then co-incubated with 0.3 nM glucagon for 60 min. After termination of the reaction by centrifugation, the cells were digested with 30% potassium hydroxide, and the glycogen content was determined. When culturing cells to concentration, a 6-well plate is used for cell culture, with a cell seeding density of 10^6 cells per well. The condition is set at a constant temperature of 37 degrees Celsius. The repetition count is three times. The activity assessment criteria were based on the positive drug psn-357 and the parent nuclear compound 5d. IC50 values were estimated by fitting the inhibition data to a logistic regression equation to generate dose–response curves. Analysis was conducted using SPSS Statistics 17.0. In vitro data are presented as mean ± SD, and in vivo data as mean ± SEM. Differences between two groups were assessed using Student’s t-test, and comparisons among three or more groups using ANOVA. A p-value < 0.05 was considered significant.

[1] = target: T1, rabbit muscle glycogen phosphorylase a (RMGPa) (Oryctolagus cuniculus, UniProt P00489); assay: RMGPa inhibition assay (phosphate release from glucose-1-phosphate); format: biochemical; conditions: for IC50: mean ± SD of three determinations
T1 sequence (P00489 2-843 limits assumed): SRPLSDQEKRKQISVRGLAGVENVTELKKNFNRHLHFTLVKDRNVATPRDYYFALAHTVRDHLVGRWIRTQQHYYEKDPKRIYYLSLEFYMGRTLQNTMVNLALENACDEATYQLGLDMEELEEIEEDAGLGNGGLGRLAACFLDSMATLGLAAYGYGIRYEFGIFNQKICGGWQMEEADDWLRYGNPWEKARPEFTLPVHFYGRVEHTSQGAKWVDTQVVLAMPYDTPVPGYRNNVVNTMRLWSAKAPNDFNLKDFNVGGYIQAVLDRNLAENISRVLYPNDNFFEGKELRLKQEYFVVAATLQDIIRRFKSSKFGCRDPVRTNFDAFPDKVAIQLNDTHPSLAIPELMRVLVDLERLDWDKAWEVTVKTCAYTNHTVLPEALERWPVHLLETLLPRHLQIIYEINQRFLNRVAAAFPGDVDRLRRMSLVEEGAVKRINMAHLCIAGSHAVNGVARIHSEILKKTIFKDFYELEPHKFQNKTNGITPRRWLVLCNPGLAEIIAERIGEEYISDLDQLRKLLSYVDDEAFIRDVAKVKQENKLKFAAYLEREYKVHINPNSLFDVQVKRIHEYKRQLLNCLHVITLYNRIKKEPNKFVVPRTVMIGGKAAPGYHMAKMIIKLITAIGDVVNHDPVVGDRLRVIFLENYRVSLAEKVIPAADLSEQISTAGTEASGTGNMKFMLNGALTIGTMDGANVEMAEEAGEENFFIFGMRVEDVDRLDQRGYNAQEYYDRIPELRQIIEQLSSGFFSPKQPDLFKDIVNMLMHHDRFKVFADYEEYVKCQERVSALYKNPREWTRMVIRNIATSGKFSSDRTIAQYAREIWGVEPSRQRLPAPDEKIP
Procedure: The synthesized compounds were evaluated for their inhibitory activity against rabbit muscle glycogen phosphorylase a (RMGPa) according to a previously reported protocol. PSN-357, a compound in phase II clinical trials, was used as a positive control. We also used the parent structure 5d as a positive control (Figure 2).
The inhibitory activity of the test compounds against RMGPa was evaluated using a microplate reader (Bio-Rad Laboratories, Berkeley, CA, USA) according to a previously described method. Briefly, RMGPa activity was determined by measuring the release of phosphate from glucose-1-phosphate, which reflects the direction of glycogen synthesis. Each test compound was dissolved in DMSO and diluted to different concentrations for IC50 determination. The enzyme was added to 100 μL reaction mixtures in 96-well Costar microplates (Corning Inc., Corning, NY, USA) containing 50 mM HEPES (pH 7.2), 100 mM potassium chloride (KCl), 2.5 mM magnesium chloride (MgCl2), 0.5 mM glucose-1-phosphate, 1 mg/mL glycogen, and the test compounds. After incubation at 22 °C for 25 min, 150 μL of a solution containing 10 mg/mL ammonium molybdate and 0.38 mg/mL malachite green was added. The absorbance of phosphate was measured at 620 nm. IC50 values were estimated by fitting the inhibition data to a dose–response curve using a logistic regression equation.

IC50 [1] [µM]	RMGPa inhibitory activity relative to PSN-357 ([1]; versus PSN-357)	Structure (SMILES)	IC50 (HL-7702 cells) [µM]	potency relative to parent structure 5d in HL-7702 cells (HL-7702 cells; versus 5d)	potency relative to PSN-357 in HL-7702 cells (inhibition of glycogen degradation) (HL-7702 cells; versus PSN-357)
0.25 ± 0.05	–	O=C(Nc1ccc2c(c1)C(=O)NCCO2)c1cc2cc(Cl)ccc2[nH]1 [Compound 5d, reference compound]	3.75 ± 2.67	–	–
0.21 ± 0.05	twice as strong	COC1COc2ccc(NC(=O)c3cc4cc(Cl)ccc4[nH]3)cc2C(=O)N1 (centres unmarked) [Compound 8a, 5-chloro-N-(3-methoxy-5-oxo-2,3,4,5-tetrahydrobenzo[f][1,4]oxazepin-7-yl)-1H-indole-2-carboxamide]	8.51 ± 3.99	–	–
1.61 ± 0.41	–	CCOC1COc2ccc(NC(=O)c3cc4cc(Cl)ccc4[nH]3)cc2C(=O)N1 (centres unmarked) [Compound 8b, 5-chloro-N-(3-ethoxy-5-oxo-2,3,4,5-tetrahydrobenzo[f][1,4]oxazepin-7-yl)-1H-indole-2-carboxamide]	6.77 ± 0.93	–	–
–	–	CCCOC1COc2ccc(NC(=O)c3cc4cc(Cl)ccc4[nH]3)cc2C(=O)N1 (centres unmarked) [Compound 8c, 5-chloro-N-(5-oxo-3-propoxy-2,3,4,5-tetrahydrobenzo[f][1,4]oxazepin-7-yl)-1H-indole-2-carboxamide]	5.33 ± 1.39	–	–
0.88 ± 0.03	–	CCCCCOC1COc2ccc(NC(=O)c3cc4cc(Cl)ccc4[nH]3)cc2C(=O)N1 (centres unmarked) [Compound 8e, 5-chloro-N-(5-oxo-3-(pentyloxy)-2,3,4,5-tetrahydrobenzo[f][1,4]oxazepin-7-yl)-1H-indole-2-carboxamide]	15.4 ± 0.89	–	–
0.29 ± 0.1	–	CCCCCCOC1COc2ccc(NC(=O)c3cc4cc(Cl)ccc4[nH]3)cc2C(=O)N1 (centres unmarked) [Compound 8f, 5-chloro-N-(3-(hexyloxy)-5-oxo-2,3,4,5-tetrahydrobenzo[f][1,4]oxazepin-7-yl)-1H-indole-2-carboxamide]	7.67 ± 1.98	–	–
0.62 ± 0.16	–	O=C(Nc1ccc2c(c1)C(=O)NC(OCc1ccccc1)CO2)c1cc2cc(Cl)ccc2[nH]1 (centres unmarked) [Compound 8g, N-(3-(benzyloxy)-5-oxo-2,3,4,5-tetrahydrobenzo[f][1,4]oxazepin-7-yl)-5-chloro-1H-indole-2-carboxamide]	1.51 ± 0.21	twice	threefold increase; also recorded: three times greater
0.7 ± 0.55	–	CC(C)CCOC1COc2ccc(NC(=O)c3cc4cc(Cl)ccc4[nH]3)cc2C(=O)N1 (centres unmarked) [Compound 8h, 5-chloro-N-(3-(isopentyloxy)-5-oxo-2,3,4,5-tetrahydrobenzo[f][1,4]oxazepin-7-yl)-1H-indole-2-carboxamide]	6.99 ± 0.99	–	–
5.31 ± 0.62	–	COCCOC1COc2ccc(NC(=O)c3cc4cc(Cl)ccc4[nH]3)cc2C(=O)N1 (centres unmarked) [Compound 8i, 5-chloro-N-[3-(2-methoxyethoxy)-5-oxo-2,3,4,5-tetrahydrobenzo[f][1,4]oxazepin-7-yl]-1H-indole-2-carboxamide]	> 15.4	–	–
–	–	O=C(N[C@@H](Cc1ccc(F)cc1)C(=O)N1CCC(O)CC1)c1cc2cc(Cl)ncc2[nH]1 [PSN-357, reference compound]	4.94 ± 0.28	–	–

Structure (SMILES)	IC50 [1] [µM]	RMGPa inhibitory activity relative to PSN-357 ([1]; versus PSN-357)	IC50 (HL-7702 cells) [µM]	potency relative to parent structure 5d in HL-7702 cells (HL-7702 cells; versus 5d)	potency relative to PSN-357 in HL-7702 cells (inhibition of glycogen degradation) (HL-7702 cells; versus PSN-357)
CCCCOC1COc2ccc(NC(=O)c3cc4cc(Cl)ccc4[nH]3)cc2C(=O)N1 (centres unmarked) [Compound 8d, N-(3-butoxy-5-oxo-2,3,4,5-tetrahydrobenzo[f][1,4]oxazepin-7-yl)-5-chloro-1H-indole-2-carboxamide]	0.71 ± 0.25	–	9.81 ± 1.39	–	–

From publication PMC12608647, “Synthesis and Activity Evaluation of Novel Benzoxazepinone Derivatives as Potential Inhibitors of Glycogen Phosphorylase” (Molecules, 2025)
